Assay results reported in article PMC11091968, “Degradation of the α-Carboxyl Terminus 11 Peptide: In Vivo and Ex Vivo Impacts of Time, Temperature, Inhibitors, and Gender in Rat” (ACS Pharmacology & Translational Science, 2024).
Counter-ions that a name gives are not always drawn. Like-named read-outs stand apart in the source and are kept apart here. Residues, ends and D or L forms follow the SMILES beside them. *: point of attachment. Biotin = O=C1N[C@H]2[C@H](CS[C@H]2CCCCC(=O)*)N1; Ahx = NCCCCCC(=O)O

Tests used:
papain = conditions: against papain; 8 (Table S4); cited from earlier work
From the text: (§1) page 5: S-5 Table S4. Protease and phosphatase inhibitor cocktail and their major targets. Abbreviations: AEBSF: 4-(2-aminoethyl) benzenesulfonyl fluoride hydrochloride; ATPase: adenosine 5′ -triphosphatase; E-64: L-trans-3-carboxyoxiran-2-carbonyl-L-leucylagmatine; IC 50: half maximal inhibitory concentration;; Ki: inhibitory constant; MW: molecular weight; N/A: not applicable; PP1 or 2A: protein ph osphatase 1 or 2A; PTP: protein tyrosine phosphatase; K293: human embryonic kidney cell line; HS596: human HS683 glioma cell line; SKN695: human SK-N-SH neuroblastoma cell line. Ingredient MW (Da ...

HS596 cells = conditions: tested on HS596 cells (human HS683 glioma cell line); ref 1-3 (Table S4); cited from earlier work
From the text: as §1

K293 cells = conditions: tested on K293 cells (human embryonic kidney cell line); ref 1-3 (Table S4); cited from earlier work
From the text: as §1

SKN695 cells = conditions: tested on SKN695 cells (human SK-N-SH neuroblastoma cell line); ref 1-3 (Table S4); cited from earlier work
From the text: as §1

[1] = tested on: serine/threonine protein phosphatases 2A; conditions: against serine/threonine protein phosphatases 2A; 14 (Table S4); cited from earlier work
From the text: as §1

[2] = tested on: serine/threonine protein phosphatases; conditions: against serine/threonine protein phosphatases; 14 (Table S4); cited from earlier work
From the text: as §1

phosphatidylserine = conditions: cited from earlier work
From the text: as §1

[3] = biological target: lysosomal and prostatic acid phosphatases; conditions: against lysosomal and prostatic acid phosphatases; 21 (Table S4); cited from earlier work
From the text: as §1

[4] = In vivo "pharmacokinetic" analysis of αCT11 in plasma after tail vein injection; parameters: species or system rat; conditions: tail vein injection to 100 μM in blood, LC-MS/MS, n = 3
Experimental: A second group of rats (only male) was not subjected to MI but injected (via the tail vein) with the same concentration of αCT11 as described in the Rat Model of I/R MI and Tail Vein Injection of αCT11 section. After injection, about 250–350 μL of blood was withdrawn at 1, 5, and 10 min following administration and transferred into an anticlotting tube containing heparin. Plasma was then separated at 4 °C and 2000g for 10 min using an Eppendorf Centrifuge 5810R (Eppendorf North America, Framingham, MA) and stored at −80 °C or used immediately for liquid chromatography tandem mass spectrometry (LC/MS-MS; described in the Prepreparation and Measurements of Plasma Containing αCT11 for LC/MS-MS Analysis section).
Plasma samples collected from either in vivo (see the In Vivo “Pharmacokinetic” Analysis of αCT11 section) or ex vivo (see the Ex Vivo Degradation Analysis of αCT11 in Rat Plasma section) groups were processed in the same way outlined here, according to the modified protocol from a previous publication.[36] Briefly, 100 μL of plasma was added to a 0.5 mL low-adhesion microcentrifuge tube containing 4% FA in 200 μL of ACN [see Table S1]. […] The samples were either stored at 4 °C up to 4 weeks (see the Results section) or analyzed immediately using a Waters H-Class UPLC mass spectrometer (Milford, MA) and its accompanying MassLynx software, version 4.2 (Milford, MA). […]

[5] = Ex vivo degradation of αCT11 in isolated rat plasma; type: in vitro ADME; conditions: for remaining at 5 min, 100 μM: 100 μM αCT11, 5 min
From the text: A third group of rats (including both males and females) was not subjected to either MI or the tail vein injection of αCT11. Instead, after injection of heparin (300 U/mL blood, the total units of heparin were estimated from body weight of each rat), as much blood as possible was collected under deep anesthesia via a cardiac puncture with a 21G needle connected to a syringe containing heparin. Blood was then transferred into an anticlotting tube on ice, followed by plasma separation as described above. All plasma collected from either males or females were randomly sorted into 4 groups (G) per gender [G1: 22 °C; G2: 37 °C, G3: 22 °C + inhibitor cocktail and G4: 37 °C + inhibitor cocktail] and incubated at 22 °C [in an Eppendorf thermomixer (Eppendorf North America, Framingham, MA)] or at 37 °C [in a digital dry bath (Benchmark, Sayreville, NJ)] with or without additions of αCT11 (at a final concentration of 100 μM in each tube) in the presence or absence of a PTase/PPTase inhibitor cocktail (at a final concentration of 1.5× of the original concentration). It took less than ∼30 s for the 22 °C groups to reach 22 °C and ∼75 s for the 37 °C groups to reach 37 °C. […], 100 μL of plasma was taken in triplicate from the tube of each animal at 0, 5, 30, and 60 min following additions of αCT11 and the cocktail inhibitors (if applied). The collected samples were then transferred to new tubes for further preparation prior to LC/MS-MS analysis.
Plasma samples collected from either in vivo (see the In Vivo “Pharmacokinetic” Analysis of αCT11 section) or ex vivo (see the Ex Vivo Degradation Analysis of αCT11 in Rat Plasma section) groups were processed in the same way outlined here, according to the modified protocol from a previous publication.[36] Briefly, 100 μL of plasma was added to a 0.5 mL low-adhesion microcentrifuge tube containing 4% FA in 200 μL of ACN [see Table S1]. The tubes were slightly (∼1 min) vortexed and centrifuged for 5 min at 11,332g using an Eppendorf Centrifuge 5424R (Eppendorf North America, Framingham, MA) to recover the supernatants. 100 μL of the supernatant was then combined with 100 μL of deionized H2O in 2 mL amber autovials with a low-volume insert and capped. The samples were either stored at 4 °C up to 4 weeks (see the Results section) or analyzed immediately using a Waters H-Class UPLC mass spectrometer (Milford, MA) and its accompanying MassLynx software, version 4.2 (Milford, MA).
For measurement, the sample extracts were first separated chromatographically with an HSS T3 column and matching VanGurd column at 40 °C. A 4 μL sample was injected onto the column using a refrigerated autosampler at 5 °C. Mobile phase A was comprised of 1% FA in H2O and mobile phase B was comprised of 1% FA in ACN (Table S1). The mobile phase was delivered to the column at a flow rate of 0.4 mL/min. Tuning was performed on each analyte by direct infusion of a standard solution (0.1 ng/μL) at a rate of 10 μL/min. The parent and production transitions for αCT11 peptide are shown in Table S2, while the mass spectrometry parameters used for detecting αCT11 are listed in Table S3.
Data were collected at 0 min in triplicate from each group using LC/MS-MS and were first calibrated as 100%; all other data from the same group were then normalized as % change over the data at 0 min. A Student’s t-test was used for comparison of 2 groups, while 1- or 2-way ANOVA followed by Tukey’s test was used for comparisons of ≥3 groups with 1 or 2 factors. All data were expressed as mean ± standard error (SE), if not otherwise specified, with p < 0.05 considered statistically significant. Data were analyzed and plotted using GraphPad Prism 9.3.1 (San Diego, CA) and Microsoft 2019 MS Excel (Redmond, WA).

[6] = Storage stability at 4 °C of plasma samples prepared for mass spectrum analysis; type: physicochemical; conditions: mass spectrum samples from male rat plasma
Experimental: Plasma samples collected from either in vivo (see the In Vivo “Pharmacokinetic” Analysis of αCT11 section) or ex vivo (see the Ex Vivo Degradation Analysis of αCT11 in Rat Plasma section) groups were processed in the same way outlined here, according to the modified protocol from a previous publication.[36] Briefly, 100 μL of plasma was added to a 0.5 mL low-adhesion microcentrifuge tube containing 4% FA in 200 μL of ACN [see Table S1]. The tubes were slightly (∼1 min) vortexed and centrifuged for 5 min at 11,332g using an Eppendorf Centrifuge 5424R (Eppendorf North America, Framingham, MA) to recover the supernatants. 100 μL of the supernatant was then combined with 100 μL of deionized H2O in 2 mL amber autovials with a low-volume insert and capped. The samples were either stored at 4 °C up to 4 weeks (see the Results section) or analyzed immediately using a Waters H-Class UPLC mass spectrometer (Milford, MA) and its accompanying MassLynx software, version 4.2 (Milford, MA). […]
Following the initial measurements at Week 0 (i.e., Day 0 when fresh plasma was isolated and αCT11 concentrations were measured at 0 min at 22 °C and 37 °C), the same samples used in each conduction were stored at 4 °C for 1 week (A), 4 weeks (B), or 6 weeks (C) before being used again to measure the peptide concentrations. […]

plasmin = conditions: against plasmin; 10 (Table S4); cited from earlier work
From the text: as §1

trypsin = conditions: against trypsin; 10 (Table S4); cited from earlier work
From the text: as §1

human cathepsin D = tested on: human cathepsin D; parameters: method as in earlier work; conditions: against human cathepsin D; 11 (Table S4); cited from earlier work
From the text: as §1, with “line.” for “line. Ingredient MW (Da ...”

Aspartic proteases = conditions: enzyme not given; 11 (Table S4); cited from earlier work
From the text: as §1

CC(C)C[C@H](NC(=O)[C@H]1O[C@@H]1C(=O)O)C(=O)NCCCCN=C(N)N (relative stereo) [E-64, L-trans-3-carboxyoxiran-2-carbonyl-L-leucylagmatine]
Ki (papain): 0.009 µM

NCCc1ccc(S(=O)(=O)F)cc1 [AEBSF, 4-(2-aminoethyl) benzenesulfonyl fluoride hydrochloride]
IC50 (HS596 cells): 300 µM | IC50 (K293 cells): 1000 µM | IC50 (SKN695 cells): 300 µM

C[C@@]12C(=O)OC(=O)[C@]1(C)[C@H]1CC[C@@H]2O1 [Cantharidin]
IC50 [1]: 0.04 µM | IC50 [2]: 0.47 µM

[Na+].[Na+].[Na+].[O]=[V]([O-])([O-])[O-] [Sodium orthovanadate]
IC50 (phosphatidylserine): 100 µM

O=C([O-])C(O)C(O)C(=O)[O-].[Na+].[Na+] (centres unmarked) [Sodium tartrate]
Ki [3]: 1 µM

CC[C@H](C)[C@H](NC(=O)[C@H](CCC(=O)O)NC(=O)[C@H](CC(C)C)NC(=O)[C@H](CC(=O)O)NC(=O)[C@H](CC(=O)O)NC(=O)[C@@H]1CCCN1C(=O)[C@H](CCCNC(=N)N)NC(=O)[C@@H]1CCCN1C(=O)[C@H](CCCNC(=N)N)NC(=O)CCCCCNC(=O)CCCC[C@@H]1SC[C@@H]2NC(=O)N[C@@H]21)C(=O)O [αCT11] ({Biotin-Ahx}-RPRPDDLEI-OH)
reduction of the initial αCT11 concentration in plasma ([4]; male rats without MI, about 5 min postinjection): ~53% | αCT11 in blood plasma 10 min after tail vein injection ([4]; male rats, 10 min postinjection): almost undetectable | remaining at 5 min, 100 μM ([5]; isolated heparinised female rat plasma, 22 °C, with 1.5× PTase/PPTase inhibitor cocktail, LC-MS/MS, mean ± SE, n = 3 rats, read-out: percentage of αCT11 (normalized to 0 min)): 80.9 ± 3.7% | remaining at 1 h, 100 μM ([5]; isolated heparinised female rat plasma, 22 °C, with 1.5× PTase/PPTase inhibitor cocktail, 100 μM αCT11, 60 min, LC-MS/MS, mean ± SE, n = 3 rats, read-out: percentage of αCT11 (normalized to 0 min)): 13.2 ± 3.3% | remaining at 5 min, 100 μM ([5]; isolated heparinised female rat plasma, 37 °C, no inhibitors, LC-MS/MS, mean ± SE, n = 3 rats (9 replicates), read-out: αCT11 level, % of starting concentration (0 min)): 51.4 ± 3.5% | αCT11 level, % of starting concentration (0 min) ([5]; isolated heparinised female rat plasma, 37 °C, no inhibitors, 100 μM αCT11, 30 min, LC-MS/MS, mean ± SE, n = 3 rats (9 replicates)): 1.6 ± 0.6% | remaining at 1 h, 100 μM ([5]; isolated heparinised female rat plasma, 37 °C, no inhibitors, 100 μM αCT11, 60 min, LC-MS/MS, mean ± SE, n = 3 rats (9 replicates), read-out: αCT11 level, % of starting concentration (0 min)): 0.1 ± 0.03% | remaining at 0.5 h, 100 μM ([5]; isolated heparinised male rat plasma, 22 °C, with 1.5× PTase/PPTase inhibitor cocktail, 100 μM αCT11, 30 min, LC-MS/MS, mean ± SE, n = 3 rats, read-out: percentage of αCT11 (normalized to 0 min)): 41.6 ± 3.3% | remaining at 1 h, 100 μM ([5]; isolated heparinised male rat plasma, 22 °C, with 1.5× PTase/PPTase inhibitor cocktail, 100 μM αCT11, 60 min, LC-MS/MS, mean ± SE, n = 3 rats, read-out: percentage of αCT11 (normalized to 0 min)): 19.1 ± 2.7% | remaining at 5 min, 100 μM ([5]; isolated heparinised male rat plasma, 37 °C, no inhibitors, LC-MS/MS, mean ± SE, n = 3 rats (9 replicates), read-out: αCT11 level, % of starting concentration (0 min)): 61.9 ± 5.7% | remaining at 0.5 h, 100 μM ([5]; isolated heparinised male rat plasma, 37 °C, no inhibitors, 100 μM αCT11, 30 min, LC-MS/MS, mean ± SE, n = 3 rats (9 replicates), read-out: αCT11 level, % of starting concentration (0 min)): 1.5 ± 1.2% | remaining at 1 h, 100 μM ([5]; isolated heparinised male rat plasma, 37 °C, no inhibitors, 100 μM αCT11, 60 min, LC-MS/MS, mean ± SE, n = 3 rats (9 replicates), read-out: αCT11 level, % of starting concentration (0 min)): 0.04 ± 0.06% | αCT11 in isolated plasma by 30 min ([5]; isolated rat plasma, 22 and 37 °C, no inhibitors, 30 min, LC-MS/MS): nearly undetectable | αCT11 concentrations, male vs female rat plasma ([5]; isolated rat plasma, 22 or 37 °C, absence and presence of 1.5× inhibitors, any time point (0, 5, 30, 60 min), LC-MS/MS, n = 3): no significant differences | αCT11 in ex vivo plasma at 60 min ([5]; isolated rat plasma, males and females, 22 °C, no inhibitors, 100 μM αCT11, 60 min, LC-MS/MS): almost undetectable | time for αCT11 concentration to decrease to 50% in ex vivo plasma ([5]; isolated rat plasma, males and females, 22 °C, no inhibitors, 100 μM αCT11, LC-MS/MS): about 10 min | storage time at 4 °C without significant degradation of αCT11 [6]: up to 4 weeks

Leupeptin
Ki (plasmin): 0.0034 µM | Ki (trypsin): 0.0035 µM

Pepstatin A
IC50 (human cathepsin D): 0.021 µM | Ki (Aspartic proteases): 0.01 nM
